Laboratory results taken from patent US20090170759A1, “NEUROPROTECTIVE PEPTIDES” (priority 2007, published 2009).
Entries after “also recorded” stand apart in the source; their conditions may differ.

Experiments:
[1] = tested on: rat cerebral cortical neurons; test: Glutamate toxicity assay in primary cortical cultures; type: cell-based; conditions: pretreatment 24 h prior to 100 μM glutamate
Source text: Dissociated hippocampal and cortical cell cultures were established from embryonic day 18 rat fetuses as previously described (Mattson et al., 1994). Briefly, fetuses were removed via cesarean section from pregnant moms (Sprague-Dawley) anesthetized with halothane according to the AVMA Panel on Euthanasia. Pups were decapitated and the brains were removed and placed in HEPES-buffered Hank's Balanced Salt solution (HBSS; Gibco). The hippocampi and cortices were dissected out and pooled according to tissue-type. Tissue was trypsinized for 15 min (1 mg/ml trypsin-HBSS; Worthington), rinsed with fresh HBSS, incubated in trypsin inhibitor (1 mg/ml; Sigma) for 5 min, rinsed again with fresh HBSS and then triturated in 1 ml fresh HBSS with a fire-polished glass pipette. Dissociated cells were seeded at 30,000 cells/well onto poly-D-lysine coated 96-well plates (Collaborative BioScience). […]
Cortical cells were seeded at 200,000 cells/dish onto polyethylenimine-coated 35 mm culture dishes. […] Cell survival was measured by counting viable cells in each field pre- and post-experimental treatment. […] Data were expressed as percent of control (vehicle; mean±SD).

PC-12 cells = test: Glutamate toxicity in PC-12 cells (trypan blue exclusion); type: cell-based, rat
Method: […] cells (from a rat Pheochromocytoma) were cultured on poly-D-Lysine coated tissue culture plastic in DMEM containing 10% FBS and 5% Horse serum. To induce the neuronal phenotype in PC-12 cells, serum was removed and the cells were treated with NGF (50 ng/ml). Cells were grown for 7 days in the presence of the NGF then used for experiments.
PC-12 cells were cultured as described above. 24 hr prior to insult, cells were treated with rhEPO at concentrations ranging from 1 pm to 1 nm. On the day of the experiment, cells were exposed to 200 μM glutamate for 30 min. Cells were then washed 2 times with fresh media to remove the glutamate and cultured in fresh media containing NGF but no EPO. After 24 hr cells were assayed for viability using a trypan blue exclusion assay. Briefly, media was removed and the cells were incubated in 0.4% Trypan Blue for 5 min. Cells were then washed gently with PBS, then fixed with 10% formalin. Cell viability was determined by counting the total number of cells vs. the number of trypan blue positive (dead) cells.

[2] = Plasma determinations by EPO ELISA; type: in vivo, rat; conditions: terminal sample
Source text: Plasma Determinations: Blood samples were collected from each rat via the orbital sinus at the time of sacrifice. Plasma was separated out, frozen and analyzed by EPO ELISA for determination of plasma concentration (U/ml).

rhEPO: purified, recombinant human EPO (rhEPO), currently formulated and distributed under the trademarks of EPREX, ERYPO, or PROCRIT
maximal increase of cell survival over parallel cultures treated with glutamate alone [1]: approximately 200% | neuronal survival after glutamate (in words) [1]: significant increase in neuronal survival; also recorded: protects rat cerebral cortical neurons against glutamate toxicity | neuroprotective effect at 1 nm, glutamate toxicity (PC-12 cells; 1 nm): no significant effect | cell survival after glutamate (in words) (PC-12 cells; 1 to 10 pm given 24 hours prior to glutamate (200 um), p<0.001): significantly increased cell survival | cell death induced by glutamate toxicity (in words) (PC-12 cells; 24 hr pre-treatment): significant decrease in cell death | peak concentration for the neuroprotective effect, glutamate toxicity (PC-12 cells; 24 hr pre-treatment, 200 μM glutamate): 10 pm | plasma concentrations, Study I ([2]; continuous infusion): correlated with the protective effect | plasma concentrations, Study II ([2]; single iv bolus 1000, 2500 or 5000 U/kg): low in each group
